Marks after values point to notes of the source that are not given here.
Legend:
[1] = Stability in buffered water at various pH and temperatures (HPLC); format: physicochemical
Method: Biocides were added to buffer solutions and stability was tested at 22° and 50° C. using HPLC to measure biocide concentration at 0 time, 21 days, 43 days, and 88-90 days. Biocide stability was determined in the following buffer solutions: pH2, 0.01M HCl; pH6, 0.1M KH2PO4; pH8, 0.025M borate; pH10, 0.025M borate; pH12, 0.05M Na2HPO4. Biocide concentrations tested were 100 ppm MI, 200 ppm BIT, 44 ppm CMI.

[2] = Stability in high pH metalworking fluid use dilutions (HPLC); format: physicochemical; conditions: for % CMIT Remaining (without MCC) / % CMIT Remaining (with MCC): 25° C.; for % CMIT Remaining (with MCC): MCC 300 ppm
Method: Stability studies were conducted in three high pH metalworking fluid use dilutions to compare the persistence of MIT biocide versus CMIT biocide, tested alone and in combination with MCC). Aliquots of the use-diluted fluids were dosed with 17.5 ppm active CMIT/MIT and CMIT/MIT/MCC and stored at 25° C. Biocide concentrations were determined at time zero and weekly using high performance liquid chromatography (HPLC) analysis.

[3] = buffer, pH 9
Method: pH 9 buffer containing 0.069 M boric acid, 0.017 M citric acid, 0.066 M sodium phosphate was prepared in distilled water. Biocide was dosed into the pH 9 buffer solution and stored at 70° C. in a heat block. The samples were examined for active ingredient concentration at the time points after 5 hours, and 1, 3, 7, 23, 30, 35 and 56 days. Initial biocide doses were 166 ppm MI, 199 ppm BIT and 150 ppm BNPD.
The samples were evaluated for active ingredient concentration via High Pressure Liquid Chromatography. Samples were taken from the heating blocks and allowed to cool to room temperature for 30 minutes. The samples were then diluted 1:20 in deionized water by adding 9.5 ml of deionized water to 0.5 grams of the samples in a 25 ml glass sample vial. The samples were mixed for 15 seconds and transferred to HPLC sample vials for analysis.

[4] = test system: Mycobacterium chelonae (ATCC 14472); assay: High resolution MIC test, pure culture, 1/10x TSB; format: cell-based; conditions: M. chelonae, 24 hours at 37° C.
Method: (§1) The lowest concentration of microbicide required to inhibit bacteria was determined by a high resolution MIC test. Varying amounts of each microbicide were added to media in a 96-well microtiter plate. The media used for the MIC tests was 10% Trypicase Soy Broth ( 1/10× TSB). […] serial dilutions were performed on a Biomek 2000 Workstation to obtain a range of closely spaced concentrations of microbicides. A cell suspension of stationary phase microorganisms, adjusted to provide 10^6 colony forming units (CFU)/mL in each well for bacteria was added to the microtiter plate. The microtiter plates were incubated for 24 hours at 30° C. for Mycobacterium immunogenum and 37° C. for Mycobacterium chelonae. The presence or absence of microbial growth was determined by measuring the turbidity in each well using a Thermomax microplate reader set at an absorbance of 650 nm. The lowest concentration of compound in which no growth was observed was considered the MIC value for the microbicide. The MIC value for each microbicide was determined from the average of four determinations for bacteria.
(§2) Bacterial strains tested included Mycobacterium chelonae (ATCC 14472) and Mycobacterium immunogenum (ATCC 700505). Mycobacterial cultures were grown overnight at 30° C. (M. immunogenum) or 37° C. (M. chelonae), in a rotary shaking bath in Middlebrook […] with Middlebrook enrichment. A 1:20 dilution of the overnight culture was made into the appropriate test media and inoculated to give a final concentration of 10^6 to 10^7 CFU/ml.

[5] = test system: Mycobacterium immunogenum (ATCC 700505); assay: High resolution MIC test, pure culture, 1/10x TSB; format: cell-based; conditions: M. immunogenum, 24 hours at 30° C.
Method: as §1, §2

[6] = test system: Mycobacterium chelonae (ATCC 14472); assay: MBC test, transfer from MIC plates to fresh media; format: cell-based; conditions: M. chelonae, no survivors after 2 days in fresh media
Method: as §2
(§3) MBC tests were conducted by transferring samples from the MIC test samples into fresh media and observing for growth of the culture. Growth was determined as above. In this test using Biomek 2000 Workstation, 10 μl samples taken from the 96-well MIC plates were placed in […] of fresh growth media to determine the number of surviving organisms for the same gradient of biocide concentrations. These plates were incubated and read in the same fashion as the MIC plates.

[7] = test system: Mycobacterium immunogenum (ATCC 700505); assay: MBC test, transfer from MIC plates to fresh media; format: cell-based; conditions: M. immunogenum, no survivors after 2 days in fresh media
Method: as §2, §3

[8] = test system: natural, resident populations of Mycobacterium; assay: Eradication of mycobacteria in naturally contaminated in-use metalworking fluids; format: cell-based; conditions: for No. of Fluids with ≧99% Kill (2-log reduction): of six fluids, 48 hours
Method: A comparative study was conducted evaluating six metalworking fluid biocides versus natural, resident populations of Mycobacterium from six in-use metalworking fluids. CMIT/MIT, CMIT/MIT/MCC, MIT, BIT, triazine, and PCMC microbicides were tested under controlled laboratory conditions to determine their efficacy at the maximum manufacturer's recommended dose rate (Table 2). The metalworking fluids were known to contain high levels of mycobacteria prior to dosing with biocides. Samples were then dosed with biocides, incubated with agitation at room temperature and viable mycobacteria counts determined after 48 hours by plating onto Middlebrook 7H10 medium, with Tween 80, glycerin, cyclohexamide, chloramphenicol, and gentamycin to suppress the growth of unwanted microorganisms.
The six metalworking fluid samples containing mycobacteria study from Example 7, were also tested using the same biocides with dosing at 50% of the maximum manufacturer's recommended rate (Table 2) under the same conditions. These metalworking fluids were known to contain high levels of mycobacteria prior to dosing with biocides. Samples were then dosed with biocides, incubated with agitation at room temperature and viable mycobacteria counts determined after 48 hours by plating onto Middlebrook 7H10 medium, with Tween 80, glycerin, cyclohexamide, chloramphenicol, and gentamycin to suppress the growth of unwanted microorganisms.

[9] = Synthetic Fluid 2 (pH 9.4), 1 wk
[10] = Synthetic Fluid 2 (pH 9.4), 3 wk
[11] = Fluid 1, 48 hours, 50% of recommended maximum dose
[12] = Fluid 1, 48 hours, 100% of recommended maximum dose
[13] = Fluid 2, 48 hours, 50% of recommended maximum dose
[14] = Fluid 2, 48 hours, 100% of recommended maximum dose
[15] = Fluid 3, 48 hours, 50% of recommended maximum dose
[16] = Fluid 3, 48 hours, 100% of recommended maximum dose
[17] = Fluid 4, 48 hours, 50% of recommended maximum dose
[18] = Fluid 4, 48 hours, 100% of recommended maximum dose
[19] = Fluid 5, 48 hours, 50% of recommended maximum dose
[20] = Fluid 5, 48 hours, 100% of recommended maximum dose
[21] = Fluid 6, 48 hours, 50% of recommended maximum dose
[22] = Fluid 6, 48 hours, 100% of recommended maximum dose

In the case of `Cn1sc(Cl)cc1=O` [CMI, 5-chloro-2-methyl-4-isothiazolin-3-one], the “Percent Remaining at: pH 2” value ([1]; 22° C., day 0) was 100%, the “Percent Remaining at: pH 6” value ([1]; 22° C., day 0) was 100% and the “Percent Remaining at: pH 8” value ([1]; 22° C., day 0) was 100%. The “Percent Remaining at: pH 10” value ([1]; 22° C., day 0) was 100%, the “Percent Remaining at: pH 12” value ([1]; 22° C., day 0) was 100% and the “Percent Remaining at: pH 2” value ([1]; 22° C., day 21) was 100%. For the same molecule, the “Percent Remaining at: pH 6” value ([1]; 22° C., day 21) was 100%, the “Percent Remaining at: pH 8” value ([1]; 22° C., day 21) was 100% and the “Percent Remaining at: pH 10” value ([1]; 22° C., day 21) was 0%. The “Percent Remaining at: pH 12” value ([1]; 22° C., day 21) was 0%, the “Percent Remaining at: pH 2” value ([1]; 22° C., day 43) was 100% and the “Percent Remaining at: pH 6” value ([1]; 22° C., day 43) was 100%. The “Percent Remaining at: pH 8” value ([1]; 22° C., day 43) was 91%, the “Percent Remaining at: pH 10” value ([1]; 22° C., day 43) was 0% and the “Percent Remaining at: pH 12” value ([1]; 22° C., day 43) was 0%. The “Percent Remaining at: pH 2” value ([1]; 22° C., day 88) was 100%, the “Percent Remaining at: pH 6” value ([1]; 22° C., day 88) was 100% and the “Percent Remaining at: pH 8” value ([1]; 22° C., day 88) was 95%. For the same molecule, the “Percent Remaining at: pH 10” value ([1]; 22° C., day 88) was 0%, the “Percent Remaining at: pH 12” value ([1]; 22° C., day 88) was 0% and the “Percent Remaining at: pH 2” value ([1]; 50° C., day 0) was 100%. The “Percent Remaining at: pH 6” value ([1]; 50° C., day 0) was 100%, the “Percent Remaining at: pH 8” value ([1]; 50° C., day 0) was 100% and the “Percent Remaining at: pH 10” value ([1]; 50° C., day 0) was 100%. For the same molecule, the “Percent Remaining at: pH 12” value ([1]; 50° C., day 0) was 100%, the “Percent Remaining at: pH 2” value ([1]; 50° C., day 21) was 100% and the “Percent Remaining at: pH 6” value ([1]; 50° C., day 21) was 100%. The “Percent Remaining at: pH 8” value ([1]; 50° C., day 21) was 15%, the “Percent Remaining at: pH 10” value ([1]; 50° C., day 21) was 0% and the “Percent Remaining at: pH 12” value ([1]; 50° C., day 21) was 0%. For the same molecule, the “Percent Remaining at: pH 2” value ([1]; 50° C., day 43) was 93%, the “Percent Remaining at: pH 6” value ([1]; 50° C., day 43) was 65% and the “Percent Remaining at: pH 8” value ([1]; 50° C., day 43) was 0%. The “Percent Remaining at: pH 10” value ([1]; 50° C., day 43) was 0%, the “Percent Remaining at: pH 12” value ([1]; 50° C., day 43) was 0% and the “Percent Remaining at: pH 2” value ([1]; 50° C., day 88) was 100%. For the same molecule, the “Percent Remaining at: pH 6” value ([1]; 50° C., day 88) was 30%, the “Percent Remaining at: pH 8” value ([1]; 50° C., day 88) was 0% and the “Percent Remaining at: pH 10” value ([1]; 50° C., day 88) was 0%. The “Percent Remaining at: pH 12” value ([1]; 50° C., day 88) was 0%, the “% CMIT Remaining (without MCC)” value ([2]; Soluble Fluid 1 (pH 9.2), 2 wk) was 28% and the “% CMIT Remaining (with MCC)” value ([2]; Soluble Fluid 1 (pH 9.2), 2 wk) was 38%. The “% CMIT Remaining (without MCC)” value ([2]; Soluble Fluid 1 (pH 9.2), 4 wk) was 10%, the “% CMIT Remaining (with MCC)” value ([2]; Soluble Fluid 1 (pH 9.2), 4 wk) was 18% and the “% CMIT Remaining (without MCC)” value ([2]; Soluble Fluid 3 (pH 9.3), 2 wk) was 25%. For the same molecule, the “% CMIT Remaining (with MCC)” value ([2]; Soluble Fluid 3 (pH 9.3), 2 wk) was 35%, the “% CMIT Remaining (without MCC)” value ([2]; Soluble Fluid 3 (pH 9.3), 4 wk) was 0% and the “% CMIT Remaining (with MCC)” value ([2]; Soluble Fluid 3 (pH 9.3), 4 wk) was 16%. The “% CMIT Remaining (without MCC)” value [2, 9] was 13%, the “% CMIT Remaining (with MCC)” value [2, 9] was 42% and the “% CMIT Remaining (without MCC)” value [2, 10] was 0* %. The “% CMIT Remaining (with MCC)” value [2, 10] was 0%, the “biocide remaining, CMIT with MCC” value ([2]; after 3-4 weeks in the three fluids, 300 ppm MCC) was at most 16% and the “biocide remaining, CMIT alone” value ([2]; after 3-4 weeks in the three fluids, without MCC) was “none remaining”.

In the case of `O=[N+]([O-])C(Br)(CO)CO` [BNPD, 2-bromo-2-nitro-propane-1,3-diol], the “Percent Remaining after: 0” value ([3]; 0 h) was 100%, the “Percent Remaining after: 5 hr” value ([3]; 5 h) was 0% and the “Percent Remaining after: 1 day” value ([3]; 24 h) was 0%.

In the case of `OCCN1CN(CCO)CN(CCO)C1` [Triazine], the “Minimum Inhibitory Concentration” value [4] was 43 ppm active, the “Minimum Inhibitory Concentration” value [5] was 39 ppm active and the “Minimum Biocidal Concentration” value [6] was 314 ppm active. The “Minimum Biocidal Concentration” value [7] was 314 ppm active, the “Log Reduction in Mycobacterial Counts versus Control (no biocide)” value (from here on “Log Reduction … (no biocide)”) [8, 11] was 0.00 log and the “Log Reduction … (no biocide)” value [8, 12] was 0.00 log. For the same molecule, the “Log Reduction … (no biocide)” value [8, 13] was 0.00 log, the “Log Reduction … (no biocide)” value [8, 14] was 0.12 log and the “Log Reduction … (no biocide)” value [8, 15] was 0.00 log. The “Log Reduction … (no biocide)” value [8, 16] was 0.00 log, the “Log Reduction … (no biocide)” value [8, 17] was 0.00 log and the “Log Reduction … (no biocide)” value [8, 18] was 0.00 log. The “Log Reduction … (no biocide)” value [8, 19] was 0.06 log, the “Log Reduction … (no biocide)” value [8, 20] was 0.00 log and the “Log Reduction … (no biocide)” value [8, 21] was 0.00 log. The “Log Reduction … (no biocide)” value [8, 22] was 0.00 log, the “No. of Fluids with ≧99% Kill (2-log reduction)” value ([8]; 50% of recommended maximum dose) was 0 and the “No. of Fluids with ≧99% Kill (2-log reduction)” value ([8]; 100% of recommended maximum dose) was 0.

In the case of `C1COCN1` [Oxazolidine], the “Minimum Inhibitory Concentration” value [4] was 42 ppm active, the “Minimum Inhibitory Concentration” value [5] was 38 ppm active and the “Minimum Biocidal Concentration” value [6] was 34 ppm active. The “Minimum Biocidal Concentration” value [7] was 836 ppm active.

In the case of `Cc1cc(O)ccc1Cl` [PCMC], the “Minimum Inhibitory Concentration” value [4] was 20 ppm active, the “Minimum Inhibitory Concentration” value [5] was 35 ppm active and the “Minimum Biocidal Concentration” value [6] was 60 ppm active. The “Minimum Biocidal Concentration” value [7] was 75 ppm active, the “Log Reduction … (no biocide)” value [8, 11] was 0.00 log and the “Log Reduction … (no biocide)” value [8, 12] was 5.88 log. The “Log Reduction … (no biocide)” value [8, 13] was 1.00 log, the “Log Reduction … (no biocide)” value [8, 14] was 5.00 log and the “Log Reduction … (no biocide)” value [8, 15] was 0.00 log. The “Log Reduction … (no biocide)” value [8, 16] was 1.00 log, the “Log Reduction … (no biocide)” value [8, 17] was 5.24 log and the “Log Reduction … (no biocide)” value [8, 18] was 5.24 log. The “Log Reduction … (no biocide)” value [8, 19] was 0.51 log, the “Log Reduction … (no biocide)” value [8, 20] was 0.90 log and the “Log Reduction … (no biocide)” value [8, 21] was 3.88 log. The “Log Reduction … (no biocide)” value [8, 22] was 3.88 log.

— US7699995B2, “Water treatment method” (priority 2006, dated 2010)
